Assay results taken from US20240165097A1, “PHARMACEUTICAL COMPOSITION FOR THE TREATMENT OF ALZHEIMER'S DISEASE OR DEMENTIA” (Heptares Therapeutics Limited, priority 2021, published 2024).
Entries after “also recorded” stand apart in the source; their conditions may differ. Read-outs that look alike come from different tables or passages of the source.

What was measured:
[1] = Example C: HTL0018318 plasma and urine pharmacokinetics; assay type: in vivo, human; details: human, oral; for AUC: Tau = 24 hrs, read-out: AUC0-tau (mean); for CL renal: urine and plasma
Method: On the days between, only pre-dose PK samples were taken. The last PK blood sample was taken between 7-14 days after the last HTL0018318 dose (Table 7).
For these calculations, data of 15 mg and 25 mg HTL0018318 were grouped together. […]
All PK analyses were performed in Phoenix 64 build 6.4.0.768 using WinNonlin 6.4. Statistical analysis was performed in R version 3.3.1 (2016-06-21) Copyright (C) 2016 The R Foundation for Statistical Computing (Platform: x86_64-w64-mingw32/x64 64-bit).

[2] = Example D: HTL0018318 plasma pharmacokinetics; assay type: in vivo, human
Method: Selected plasma pharmacokinetics (PK) parameters for HTL0018318 were estimated during the period over which PD assessments were made. Details of assessment times for all endpoints are described below.
Pharmacokinetics (PK) were evaluated via blood samples, for determination of HTL0018318 concentrations in plasma. Blood samples were collected during clinic visits before morning dose administration and 1, 2, and 4 hours after dose administration, on Day 1, Day 6, Day 11, Day 16, Day 28, and Day 35 (follow-up visit). Bioanalysis used a fully validated method and all samples were analysed within the established period of storage stability. Validated Phoenix® WinNonlin® Version 6.4 was used to derive PK parameters.
All safety analyses used the safety set (SAF; randomised dose). The SAF (randomised dose) included all randomised patients who received at least one dose of the study drug; treatment group assignment was based on the initial randomised dose. All efficacy analyses were considered exploratory and used the full analysis set (FAS). The FAS included all randomised patients with at least one post-baseline efficacy measurement; treatment group assignment was based on the initial randomised dose. All summaries and analyses of PK data used the pharmacokinetic set (PKS). The PKS included all randomised patients with valid PK assessments; treatment group assignment was based on actual dose received.

[3] = plasma, 25 mg, 25 mg only, 5th dose

**Q.** What does the source list for `CCOC(=O)N1C2CCC1CC(N1CCC3(CC1)CNC(=O)C3)C2` (centres unmarked) [HTL0018318, ethyl 3-(3-oxo-2,8-diazaspiro[4.5]dec-8-yl)-8-azabicyclo[3.2.1]octane-8-carboxylate]?
**A.** AUC ([1]; plasma, 25 mg, 25 mg only, 1st dose): 1370 ng·h/mL; AUC(0-inf) ([1]; plasma, 25 mg, 25 mg only, 1st dose, read-out: AUC0-inf (mean)): 1650 ng·h/mL; half-life ([1]; plasma, 25 mg, 25 mg only, 1st dose, read-out: Half-life (mean) (converted)): 8.52 h; Tmax ([1]; plasma, 25 mg, 25 mg only, 1st dose, read-out: Tmax (median)): 1.75 h; Cmax [1, 3]: 162 ng/mL; AUC [1, 3]: 1710 ng·h/mL; half-life ([1]; plasma, 25 mg, 25 mg only, 5th dose, read-out: Half-life (mean) (converted)): 13.4 h; Tmax ([1]; plasma, 25 mg, 25 mg only, 5th dose, read-out: Tmax (median)): 1.76 h; Tmax ([1]; plasma, 25 mg, 15 and 25 mg, with and without donepezil, read-out: Tmax, range over groups): 1.74 to 2.5 h; half-life ([1]; plasma, 25 mg, 15 and 25 mg, with and without donepezil, read-out: half-life following the fifth dose, range over groups): 10.7 to 13.8 h; CL renal ([1]; 15 mg + DPZ, 1st dose): 109 mL/min; CL renal ([1]; 15 mg + DPZ, 5th dose): 109 mL/min; CL renal ([1]; 15 mg, 15 mg only, 1st dose): 109 mL/min; CL renal ([1]; 15 mg, 15 mg only, 5th dose): 104 mL/min; Ctrough, arithmetic mean ± SD ([2]; 5 mg, visit day 6): 14.2 ± 12.1 ng/mL; Ctrough, arithmetic mean ± SD ([2]; 5 mg, visit day 11): 13.7 ± 10.3 ng/mL; Ctrough, arithmetic mean ± SD ([2]; 10 mg, visit day 6): 7.55 ± 4.72 ng/mL; Ctrough, mean ([2]; 10 mg, visit day 11, n = 2): 5.47 ng/mL; Ctrough, arithmetic mean ± SD ([2]; 15 mg, visit day 6): 19.0 ± 25.7 ng/mL; Ctrough, arithmetic mean ± SD ([2]; 15 mg, visit day 11): 27.9 ± 40.7 ng/mL; Cmax, arithmetic mean ± SD ([2]; 25 mg, visit day 28): 223 ± 134 ng/mL; dose-exposure proportionality (Cmax, AUC0-4 h) ([2]; 5-25 mg): Dose-exposure proportionality was confirmed; also recorded: increased proportionally across 5-25 mg doses; steady-state achieved with daily dosing ([2]; any given dose level): 5 days; AUC(0-t) ([2]; human, plasma, 5 mg, visit day 1, read-out: AUC0-4 h, arithmetic mean ± SD): 113 ± 57.6 ng·h/mL; Cmax ([2]; human, plasma, 5 mg, visit day 1, read-out: Cmax, arithmetic mean ± SD): 40.3 ± 24.4 ng/mL; AUC(0-t) ([2]; human, plasma, 5 mg, visit day 6, read-out: AUC0-4 h, arithmetic mean ± SD): 146 ± 53.1 ng·h/mL; Cmax ([2]; human, plasma, 5 mg, visit day 6, read-out: Cmax, arithmetic mean ± SD): 50.5 ± 15.6 ng/mL; AUC(0-t) ([2]; human, plasma, 5 mg, visit day 11, read-out: AUC0-4 h, arithmetic mean ± SD): 149 ± 70.6 ng·h/mL; Cmax ([2]; human, plasma, 5 mg, visit day 11, read-out: Cmax, arithmetic mean ± SD): 48.3 ± 19.6 ng/mL; AUC(0-t) ([2]; human, plasma, 5 mg, visit day 16, read-out: AUC0-4 h, arithmetic mean ± SD): 132 ± 56.2 ng·h/mL; Cmax ([2]; human, plasma, 5 mg, visit day 16, read-out: Cmax, arithmetic mean ± SD): 46.4 ± 18.9 ng/mL; AUC(0-t) ([2]; human, plasma, 5 mg, visit day 28, read-out: AUC0-4 h, arithmetic mean ± SD): 144 ng·h/mL; Cmax ([2]; human, plasma, 5 mg, visit day 28, read-out: Cmax, arithmetic mean ± SD): 51.8 ng/mL; AUC(0-t) ([2]; human, plasma, 10 mg, visit day 6, read-out: AUC0-4 h, arithmetic mean ± SD): 244 ± 88 ng·h/mL; Cmax ([2]; human, plasma, 10 mg, visit day 6, read-out: Cmax, arithmetic mean ± SD): 82.4 ± 31.6 ng/mL; AUC(0-t) ([2]; human, plasma, 10 mg, visit day 11, n = 2, read-out: AUC0-4 h, mean [minimum, maximum]): 231 ng·h/mL; Cmax ([2]; human, plasma, 10 mg, visit day 11, read-out: Cmax, arithmetic mean ± SD): 69.7 ± 33.6 ng/mL; AUC(0-t) ([2]; human, plasma, 10 mg, visit day 16, n = 1, read-out: AUC0-4 h): 302 ng·h/mL; Cmax ([2]; human, plasma, 10 mg, visit day 16, n = 1, read-out: Cmax): 87.5 ng/mL; AUC(0-t) ([2]; human, plasma, 10 mg, visit day 28, n = 1, read-out: AUC0-4 h): 222 ng·h/mL; Cmax ([2]; human, plasma, 10 mg, visit day 28, n = 1, read-out: Cmax): 89 ng/mL; AUC(0-t) ([2]; human, plasma, 15 mg, visit day 6, read-out: AUC0-4 h, arithmetic mean ± SD): 315 ± 163 ng·h/mL; Cmax ([2]; human, plasma, 15 mg, visit day 6, read-out: Cmax, arithmetic mean ± SD): 106 ± 54 ng/mL; AUC(0-t) ([2]; human, plasma, 15 mg, visit day 11, read-out: AUC0-4 h, arithmetic mean ± SD): 379 ± 77.5 ng·h/mL; Cmax ([2]; human, plasma, 15 mg, visit day 11, read-out: Cmax, arithmetic mean ± SD): 126 ± 29.3 ng/mL; AUC(0-t) ([2]; human, plasma, 15 mg, visit day 16, read-out: AUC0-4 h, arithmetic mean ± SD): 422 ± 94.5 ng·h/mL; Cmax ([2]; human, plasma, 15 mg, visit day 16, read-out: Cmax, arithmetic mean ± SD): 136 ± 31.4 ng/mL; AUC(0-t) ([2]; human, plasma, 15 mg, visit day 28, read-out: AUC0-4 h, arithmetic mean ± SD): 368 ng·h/mL; Cmax ([2]; human, plasma, 15 mg, visit day 28, read-out: Cmax, arithmetic mean ± SD): 123 ng/mL; AUC(0-t) ([2]; human, plasma, 25 mg, visit day 11, read-out: AUC0-4 h, arithmetic mean ± SD): 650 ± 302 ng·h/mL; Cmax ([2]; human, plasma, 25 mg, visit day 11, read-out: Cmax, arithmetic mean ± SD): 222 ± 102 ng/mL; AUC(0-t) ([2]; human, plasma, 25 mg, visit day 16, read-out: AUC0-4 h, arithmetic mean ± SD): 728 ± 359 ng·h/mL; Cmax ([2]; human, plasma, 25 mg, visit day 16, read-out: Cmax, arithmetic mean ± SD): 243 ± 108 ng/mL; AUC(0-t) ([2]; human, plasma, 25 mg, visit day 28, read-out: AUC0-4 h, arithmetic mean ± SD): 668 ng·h/mL; Cmax ([2]; human, plasma, 25 mg, visit day 28, read-out: Cmax, arithmetic mean ± SD): 224 ng/mL; concentration at 16 day ([2]; human, plasma, 5 mg, visit day 16, read-out: Ctrough, arithmetic mean ± SD): 14.1 ± 10.8 ng/mL; concentration at 28 day ([2]; human, plasma, 5 mg, visit day 28, read-out: Ctrough, arithmetic mean ± SD): 14.2 ± 12.3 ng/mL; concentration at 16 day ([2]; human, plasma, 10 mg, visit day 16, n = 1, read-out: Ctrough): 8.25 ng/mL; concentration at 28 day ([2]; human, plasma, 10 mg, visit day 28, n = 1, read-out: Ctrough): 6.41 ng/mL; concentration at 16 day ([2]; human, plasma, 15 mg, visit day 16, read-out: Ctrough, arithmetic mean ± SD): 29.4 ± 38.5 ng/mL; concentration at 28 day ([2]; human, plasma, 15 mg, visit day 28, read-out: Ctrough, arithmetic mean ± SD): 23.2 ± 16 ng/mL; concentration at 11 day ([2]; human, plasma, 25 mg, visit day 11, read-out: Ctrough, arithmetic mean ± SD): 22.2 ± 21.8 ng/mL; concentration at 16 day ([2]; human, plasma, 25 mg, visit day 16, read-out: Ctrough, arithmetic mean ± SD): 66.7 ± 80.4 ng/mL; concentration at 28 day ([2]; human, plasma, 25 mg, visit day 28, read-out: Ctrough, arithmetic mean ± SD): 40.3 ± 30.6 ng/mL; Tmax ([2]; human, plasma, all doses, read-out: Tmax (median)): 1 to 2 h
